Assay results: US20220028483A1, “SYSTEMS AND METHODS FOR CLASSIFYING TUMORS” (PRESIDENT AND FELLOWS OF HARVARD COLLEGE, priority 2018, published 2022)

System: breast cancer cell lines
Assay: Drug response (IC50, GDSC data) of breast cancer cell lines classified Signature 3-positive or -negative by SigMA
Format: cell-based
Settings: five Signature 3-positive vs twelve Signature 3-negative breast cancer cell lines; p=0.044, Kolmogorov-Smirnov test
Description: To test the hypothesis that the presence of Signature 3 indicates susceptibility to PARP inhibition, the response of diverse cancer cell lines was examed to the two popular PARP inhibitors olaparib and velirapib (Supplementary Methods Section 12). The disclosed SigMA example algorithm was first applied to 700 cell lines from the Cancer Cell Line Encyclopedia (CCLE) project (Basu et al., 2013) to identify those with Signature 3. Mutation calls from a 1651-gene panel and copy number calls from single-nucleotide polymorphism (SNP) arrays were available for each cell line. In applying SigMA, a stringent filter was used to discriminate the cell lines with Signature 3 mutations from those without Signature 3 but with a large number of in vitro culture-associated mutations (Online Methods and Supplementary Methods Section 12). Also, cell lines with MSI signatures were removed to minimize their confounding effect (see Vilar Sanchez et al. (2009), and Supplementary FIG. 6f). […]
Among 1074 cell lines in total, the mutational spectra of 700 cell lines were analyzed of major tumor types with SigMA, but only 136 of these had drug response data for either olaparib or veliparib. […]

For `O=C(c1cc(Cc2n[nH]c(=O)c3ccccc23)ccc1F)N1CCN(C(=O)C2CC2)CC1` [olaparib], the “fold decrease of IC50 values in Signature 3-positive vs Signature 3-negative cell lines” value was 2.6 fold.
